From patent US11154593B2, “CNP prodrugs with large carrier moieties” (ASCENDIS PHARMA GROWTH DISORDERS A/S, priority 2016, dated 2021)
Like-named read-outs stand apart in the source and are kept apart here.

Key:
recombinant human NEP = recombinant human NEP (Homo sapiens, UniProt P08473); test: Digest of CNP variants by Neutral Endopeptidase in vitro (NEP digest assay); settings: pH 7.4
Procedure: (§1) In order to determine the in vitro stability of various CNP variants including different peptide chain lengths and PEGylations using different PEGylation sites and PEG molecules in the presence of Neutral Endopeptidase (NEP), a NEP digest assay was established. This assay monitored the decrease of the non-digested CNP variant (normalized with the internal standard PFP) over time in reference to the t0-time point.
(§2) In detail, recombinant human NEP (2.5 μg/mL final concentration) and the standard pentafluorophenol (PFP; 40 μg/mL final concentration) were added to the CNP variant (100 μg CNP equivalents/mL) in digest buffer (50 mM Tris-HCl, pH 7.4, 10 mM NaCl). The solution was incubated at 37° C. and 500 rpm for up to 4 days. Samples were taken at different time intervals. The reaction was stopped by a combined reduction and heat denaturation adding TCEP (tris(2-carboxyethyl)phosphine; 25 mM final concentration) and incubating the mixture at 95° C., 500 rpm for 5 minutes. The resulting reaction products were assigned using HPLC-MS. The half life of each CNP variant was calculated via the ratio change in the HPLC-UV peak areas of CNP and PFP over time.

[1] = Evaluation of cardiovascular effects in the conscious telemetered mouse (subcutaneous administration); format: in vivo; settings: for MAP during the remaining ten time points versus vehicle / change in MAP at the 5, 15 and 30 min post dose time points compared to predose / MAP (mean ± SD): 800 μg CNP-38 (eq)/kg sc; for MAP during the remaining ten time points versus vehicle: 1 to 48 hours postdose; for change in MAP at the 5, 15 and 30 min post dose time points compared to predose: CNP-38: 3 of 4 animals
Procedure: Male Crl:CDl(ICR) mice (age range 8-13 weeks and body weight range 27.3-35.6 g at start of dosing) were surgically implanted with a TA11PA-C10 telemetry transmitter (Data Sciences International (DSI)) in the carotid artery. The body of the transmitter was placed subcutaneously in the lateral flank of the mouse. The mice were dosed subcutaneously in a latin square crossover design with at least 72 hours between dosing occasions. […] At least four mice were included at each dose level. Blood pressure (systolic (SAP), diastolic (DAP) and mean (MAP) and heart rate (HR, derived from blood pressure), were recorded using a digital data capture system linked with a DSI™ Ponemah data acquisition and analysis system. The capture system allowed recording of the cardiovascular parameters whilst the mice were in individual cages. On the day of each test session the animals were weighed and a predose recording was performed for at least 60 min prior to dosing. Each mouse was returned to the home cage and the cardiovascular parameters were recorded for approximately 48 hours postdose. Blood pressure and HR were reported at the following time points: -30, -20, -10, 5, 15 and 30 min postdose and 1, 2, 6, 12, 18, 24, 30, 36, 42 and 48 hours postdose. Each time point was presented as the average value of five minute's recording prior to the time point. The monitoring period was selected to cover exposure to the test items both prior to and after Tmax.

NPR-B = biological target: T1, NPR-B (Mus musculus, UniProt Q6VVW5); test: Functional cGMP stimulation in NIH-3T3 cells with CNP variants; format: cell-based, Murine; settings: cGMP TR-FRET, 30 min, 37° C.
T1 construct: These cells express endogenously NPR-B on the cell surface; endogenous in cells; host or cells: NIH-3T3 (murine embryo fibroblasts)
T1 sequence (Q6VVW5 17-1047): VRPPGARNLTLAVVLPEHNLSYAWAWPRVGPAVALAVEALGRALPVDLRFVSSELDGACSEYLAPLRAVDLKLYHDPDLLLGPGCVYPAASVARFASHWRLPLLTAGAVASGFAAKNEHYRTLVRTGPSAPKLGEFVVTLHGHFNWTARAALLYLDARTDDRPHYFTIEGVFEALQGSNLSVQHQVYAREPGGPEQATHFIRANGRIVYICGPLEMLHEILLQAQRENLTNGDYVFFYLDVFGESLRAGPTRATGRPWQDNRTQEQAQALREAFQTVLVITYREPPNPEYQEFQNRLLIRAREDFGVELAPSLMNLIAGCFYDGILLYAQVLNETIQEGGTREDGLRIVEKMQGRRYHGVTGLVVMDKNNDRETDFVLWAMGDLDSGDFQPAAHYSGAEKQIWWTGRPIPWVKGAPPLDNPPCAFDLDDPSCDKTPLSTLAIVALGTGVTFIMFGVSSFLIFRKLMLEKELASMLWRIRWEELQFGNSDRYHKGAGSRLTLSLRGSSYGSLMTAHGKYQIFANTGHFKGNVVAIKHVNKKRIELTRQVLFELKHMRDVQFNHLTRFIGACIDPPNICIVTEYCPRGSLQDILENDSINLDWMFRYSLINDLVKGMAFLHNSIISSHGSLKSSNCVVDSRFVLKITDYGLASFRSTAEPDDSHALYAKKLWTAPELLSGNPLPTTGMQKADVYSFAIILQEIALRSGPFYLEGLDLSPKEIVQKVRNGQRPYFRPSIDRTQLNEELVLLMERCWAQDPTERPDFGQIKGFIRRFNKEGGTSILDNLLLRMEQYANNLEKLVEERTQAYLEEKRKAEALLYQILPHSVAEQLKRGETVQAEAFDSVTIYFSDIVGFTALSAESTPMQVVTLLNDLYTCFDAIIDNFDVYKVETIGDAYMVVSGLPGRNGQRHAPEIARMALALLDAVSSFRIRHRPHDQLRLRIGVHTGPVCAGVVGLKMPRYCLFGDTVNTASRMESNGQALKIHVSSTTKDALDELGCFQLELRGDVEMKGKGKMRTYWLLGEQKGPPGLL
Procedure: Functional activity of CNP variants were determined in a cell-based assay with NIH-3T3 cells (Murine Embryo Fibroblast cell line). These cells express endogenously NPR-B on the cell surface. Stimulation of NPR-B with CNP leads to intracellular production of the second messenger cGMP which is detected with a commercially available cGMP assay. NIH-3T3 cells were routinely cultured in DMEM F-12 medium with 5% FBS and 5 mM glutamine at 37° C. and 5% CO2. For each assay, 50,000 cells were resuspended in stimulation buffer (Dulbecco's PBS with IBMX) and incubated with the CNP variants in different concentrations. CNP (dilutions were made in PBS with 0.2% BSA). After incubation of 30 min at 37° C. and 5% CO2, the cells were lyzed and cGMP levels were determined with a commercially available cGMP TR-FRET assay (Cisbio, cGMP kit, Cat. No. 62GM2PEB). PEGylated CNP variants were always characterized in comparison with the non-PEGylated version in the same experiment batch. If possible, evaluation of the residual activity was done via the EC50- parameter of the resulting dose-response curve (restricted model with common slope).
After 7 d, released CNP-38 was isolated by RP-HPLC and analyzed for bioactivity as described in Example 22.

NPR-C = biological target: T2, NPR-C (Homo sapiens, UniProt P17342); test: NPR-C affinity assay (competition with fluorescein-labelled CNP 27d, flow cytometry); settings: NPR-C expressing Hek293 cell line
T2 sequence (P17342 27-541): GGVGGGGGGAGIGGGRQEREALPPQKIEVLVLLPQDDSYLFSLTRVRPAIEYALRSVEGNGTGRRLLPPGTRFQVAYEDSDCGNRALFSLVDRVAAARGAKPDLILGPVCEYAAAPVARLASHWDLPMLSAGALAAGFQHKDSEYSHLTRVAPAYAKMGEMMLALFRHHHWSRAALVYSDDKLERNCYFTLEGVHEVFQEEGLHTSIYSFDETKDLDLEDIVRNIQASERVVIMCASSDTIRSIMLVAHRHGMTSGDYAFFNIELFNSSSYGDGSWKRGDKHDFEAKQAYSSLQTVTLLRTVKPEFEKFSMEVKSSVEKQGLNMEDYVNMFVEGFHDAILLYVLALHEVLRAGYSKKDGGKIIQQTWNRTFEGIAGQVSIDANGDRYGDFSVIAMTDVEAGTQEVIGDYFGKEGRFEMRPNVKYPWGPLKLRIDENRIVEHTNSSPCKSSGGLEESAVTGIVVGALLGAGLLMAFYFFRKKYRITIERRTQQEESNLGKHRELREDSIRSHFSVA

[2] = doses up to 15 μg/kg, healthy volunteers; cited from earlier work
[3] = in vivo; cited from earlier work
[4] = biological target: Neutral Endopeptidase (NEP) (Homo sapiens, UniProt P08473); test: in vitro; settings: pH 7.4
Procedure: as §1, §2

[5] = Pharmacokinetic profile of CNP-38 after subcutaneous single-dose administration to cynomolgus monkeys; format: in vivo
Procedure: Blood samples were collected at 5, 10, 15, 30, 45 min and 1, 2, 4, 8 hours upon dose.
Method: Plasma levels of CNP were analysed using a commercially available competitive radioimmuno-assay (RK-012-03, Phoenix Pharmaceuticals, CA). The assay was applied essentially as described by the manufacturer. The assay is based on competitive binding between 1251-labelled CNP (supplied in the kit) and unlabeled CNP (from study sample or calibrants) to an anti-CNP antibody. […] By measuring the amount of 1251-labelled CNP bound as a function of the concentration of peptide, it is possible to construct a calibration curve from which the concentration of peptide in the sample can be determined.
A few changes to the supplied assay protocol were made. These changes included using in-house CNP calibrant and QC samples to secure consistency between assay runs. […] Due to matrix effects in monkey plasma, the minimal required dilution was set at 1:10, yielding an assay range of 150-1080 μg/mL CNP.

[6] = male, cynomolgus monkey, in vivo, sc, 40 ug/kg

recombinant human NEP, sequence (P08473 whole entry): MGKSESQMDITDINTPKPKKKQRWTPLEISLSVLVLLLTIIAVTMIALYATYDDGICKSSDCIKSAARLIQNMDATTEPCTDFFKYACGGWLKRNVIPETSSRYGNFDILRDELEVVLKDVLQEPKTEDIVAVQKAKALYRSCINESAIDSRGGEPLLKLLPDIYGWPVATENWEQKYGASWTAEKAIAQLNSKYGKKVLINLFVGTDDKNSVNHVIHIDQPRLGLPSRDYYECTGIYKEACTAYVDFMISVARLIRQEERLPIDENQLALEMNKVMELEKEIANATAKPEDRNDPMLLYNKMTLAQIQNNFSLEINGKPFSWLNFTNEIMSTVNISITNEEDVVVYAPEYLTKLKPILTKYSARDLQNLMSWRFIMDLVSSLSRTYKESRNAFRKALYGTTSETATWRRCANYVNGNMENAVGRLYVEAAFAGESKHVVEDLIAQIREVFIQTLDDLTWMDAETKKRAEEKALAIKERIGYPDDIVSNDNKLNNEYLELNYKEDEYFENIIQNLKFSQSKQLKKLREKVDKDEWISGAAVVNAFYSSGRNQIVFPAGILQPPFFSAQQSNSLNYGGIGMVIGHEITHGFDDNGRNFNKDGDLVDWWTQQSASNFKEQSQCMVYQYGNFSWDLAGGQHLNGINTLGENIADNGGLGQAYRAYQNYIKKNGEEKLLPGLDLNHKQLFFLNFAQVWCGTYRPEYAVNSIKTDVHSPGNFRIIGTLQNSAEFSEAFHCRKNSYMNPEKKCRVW
Neutral Endopeptidase (NEP), sequence (P08473 whole entry): as above

**Q.** With “Permanent Lys26 CNP-38 PEG4×10 kDa Conjugate [Conjugate 12g]” as the molecule, how does the “half life norm. [h]” value (recombinant human NEP) read?
**A.** Its value is “Almost no proteolysis”.

**Q.** With “Permanent Lys16 CNP-34 PEG 5 kDa Conjugate [Conjugate 17e]” as the molecule, how does the “half life norm.” value (recombinant human NEP) read?
**A.** Its value is 54.23 h.

**Q.** Which “MAP during the remaining ten time points versus vehicle” value [1] does the source give for “Reversible Lys26 CNP-38 PEG4×10 kDa Conjugate [Conjugate 11i]” here?
**A.** Its value is “no difference in MAP”.

**Q.** What about the “change in MAP at the 5, 15 and 30 min post dose time points compared to predose” value [1] of the same molecule?
**A.** Its value is “physiological increase in MAP”.

**Q.** What about the “MAP (mean ± SD)” value ([1]; 5 min post dose) of the same molecule?
**A.** The value was 122.8 ± 5.9 mmHg.

**Q.** And the “MAP (mean ± SD)” value ([1]; 15 min post dose)?
**A.** Its value is 121.5 ± 7.5 mmHg.

**Q.** What about the “MAP (mean ± SD)” value ([1]; 30 min post dose) of the same molecule?
**A.** Its value is 111.5 ± 13.7 mmHg.

**Q.** What about the “MAP (mean ± SD)” value ([1]; predose) of the same molecule?
**A.** Its value is 106.4 ± 10.7 mmHg.

**Q.** What about the “effect on blood pressure (conclusion)” value ([1]; subcutaneous, dosage equivalent to CNP-38) of the same molecule?
**A.** The value was “did not decrease blood pressure”.

**Q.** For “Permanent Lys22 CNP-34 PEG 5 kDa Conjugate [Conjugate 18e]”, which “half life norm.” value (recombinant human NEP) is on record?
**A.** Its value is 38.87 h.

**Q.** With “Permanent Lys26 CNP-38 PEG 5 kDa Conjugate [Conjugate 19e]” as the molecule, how does the “half life norm.” value (recombinant human NEP) read?
**A.** The value was 62.76 h.

**Q.** What about the “EC50 compound/EC50 CNP-38 (residual NPR-B activity)” value (NPR-B) of the same molecule?
**A.** The value was greater than 100.

**Q.** And the “IC50 of PEGylated CNP-38/IC50 CNP-38 (residual NPR-C affinity)” value (NPR-C)?
**A.** Its value is 1.1.

**Q.** For BMN-111, which blood pressure effect [2] is on record?
**A.** Its blood pressure effect is “mild hypotension”.

**Q.** What about the half-life [3] of the same molecule?
**A.** The half-life was 0.333 h.

**Q.** Which “half life norm. [h]” value (recombinant human NEP) does the source give for “Permanent N-Terminal CNP-34 PEG 5 kDa Conjugate [Conjugate 14e]” here?
**A.** The value was “Almost no proteolysis”.

**Q.** Which results are given for `CC[C@H](C)[C@@H]1NC(=O)[C@H](CCCNC(=N)N)NC(=O)[C@H](CC(=O)O)NC(=O)[C@H](CC(C)C)NC(=O)[C@H](CCCCN)NC(=O)[C@H](CC(C)C)NC(=O)CNC(=O)[C@H](Cc2ccccc2)NC(=O)[C@@H](NC(=O)CNC(=O)[C@H](CCCCN)NC(=O)[C@H](CO)NC(=O)[C@H](CC(C)C)NC(=O)CNC(=O)[C@H](CCCCN)NC(=O)[C@H](CCCCN)NC(=O)[C@H](CC(N)=O)NC(=O)[C@H](C)NC(=O)CNC(=O)[C@H](CCCCN)NC(=O)[C@H](Cc2ccc(O)cc2)NC(=O)[C@H](CCCCN)NC(=O)[C@H](CCCNC(=N)N)NC(=O)[C@H](C)NC(=O)[C@H](CC(N)=O)NC(=O)[C@@H]2CCCN2C(=O)[C@H](Cc2c[nH]cn2)NC(=O)[C@H](CCC(=O)O)NC(=O)[C@H](CCC(N)=O)NC(=O)[C@@H](N)CC(C)C)CSSC[C@@H](C(=O)O)NC(=O)CNC(=O)[C@H](CC(C)C)NC(=O)CNC(=O)[C@H](CO)NC(=O)[C@H](CCSC)NC(=O)[C@H](CO)NC(=O)CNC1=O` [CNP-38, reference compound]?
**A.** half-life at 100 μg CNP equivalents/mL [4]: 12.1 h; MAP during the remaining ten time points versus vehicle [1]: no difference in MAP; change in MAP at the 5, 15 and 30 min post dose time points compared to predose [1]: significant decrease in MAP; MAP (mean ± SD) ([1]; 5 min post dose): 102.0 ± 7.5 mmHg; MAP (mean ± SD) ([1]; 15 min post dose): 89.5 ± 29.4 mmHg; MAP (mean ± SD) ([1]; 30 min post dose): 99.5 ± 25.2 mmHg; MAP (mean ± SD) ([1]; predose): 106.8 ± 13.4 mmHg; AUC(0-t) [5, 6]: 2.5 ng·h/mL; Cmax [5, 6]: 7.9 ng/mL; Tmax [5, 6]: 0.167 h; half-life ([5]; male, cynomolgus monkey, in vivo, sc, 40 ug/kg, Half-life (mean)): ~7 min; tolerability ([5]; single s.c. 40 μg/kg): well tolerated

**Q.** For “Permanent N-Terminal CNP-38 PEG 5 kDa Conjugate [Conjugate 15e]”, which “half life norm. [h]” value (recombinant human NEP) is on record?
**A.** The value was “Almost no proteolysis”.

**Q.** What about the “EC50 compound/EC50 CNP-38 (residual NPR-B activity)” value (NPR-B) of the same molecule?
**A.** Its value is greater than 5.

**Q.** What about the “IC50 of PEGylated CNP-38/IC50 CNP-38 (residual NPR-C affinity)” value (NPR-C) of the same molecule?
**A.** The value was 0.53.
